The source of these data is US10077436B2, “Beta-glucosidase enzymes for increased biomass saccharification” (Edeniq, Inc., priority 2013, dated 2018).

The assay relates to A-BG (Accellerase® BG from DuPont), commercial beta-glucosidase. The assay is described as follows: BG kinetics, cellobiose hydrolysis assay (HPLC) with glucose as competitive inhibitor, A-BG. It counts as biochemical. The source says:
The kinetic properties of beta glucosidase are important for cellulosic hydrolysis, since in commercial situations a wide range of substrate concentrations and different product inhibition conditions will be encountered. In this example, a Michaelis-Menten kinetics model was used to describe BG kinetics.
BG activity assay using cellobiose is the other standard assay to measure BG or cellobiase activity, which utilizes hydrolysis of cellobiose by cellobiase into two molecules of glucose, the last step of enzymatic hydrolysis of cellulose. One cellobiase unit (commonly termed as CBU) is defined as the amount of enzyme that converts […] of cellobiose or produces 2 μmol of glucose per min. Briefly, to determine BG activity, 25 μL of diluted enzyme in 50 mM citrate buffer (pH 4.8) equilibrated to 50° C. was mixed with 25 μL cellobiose (or cellobiose/glucose mixture for the kinetic study) to start the reaction. The mixture was incubated at 50° C. for 10 min, and the reaction was terminated by incubating the mixture at 99° C. for 5 min. Different methods are available to measure the glucose produced in the assays. For the kinetic study, HPLC was used.
To determine kinetic properties using cellobiose substrate, duplicate assays with cellobiose concentrations ranging from 0.47 to 15 mM and glucose concentrations of 0, 0.9, 4.5, 6.75, and 8.1 (for A-BG) or 9 (for all the other three BGs) g/L were performed. As for pNPG substrate, the range of cellobiose substrate concentration was chosen to show detectable activity at the lowest substrate concentration and saturation stage at high substrate concentration. […] Moreover, theoretically there are two ways to measure BG activity by HPLC when cellobiose is used as the substrate: tracking consumption of cellobiose or tracking production of glucose. […] In Table 3, A % is defined as follows and is an indicator of measurement sensitivity, since the difference of substrate or product concentrations before and after reaction was used to determine BG activity. Δ%=(start conc. of cellobiose−end conc. of cellobiose)/start conc. of cellobiose×100% (3) Δ%=(end conc. of glucose−start conc. of glucose)/start conc. of glucose×100% (4)
A similar simultaneous nonlinear regression method based on the competitive inhibition equation expressed in Equation (1) was used to determine kinetic parameters of BG towards cellobiose.
The specific activity used here was determined by the initial velocity approach that is required by implementing Michaelis-Menten model (Copeland, 2000). The specific activity was determined by measuring consumption of cellobiose in the first 10 min of reaction and was expressed as μmol min^−1 mg^−1, where mg^−1 means per mg of total protein. The relative activity was determined based on the maximum activity obtained in the absence of initial glucose inhibition.
The above experimental data were fit in the competitive inhibition model as expressed in Equation (1) by simultaneous nonlinear regression.

With `OC[C@H]1OC(O)[C@H](O)[C@@H](O)[C@@H]1O` (stereo partly drawn) [glucose], under “9 g/L (0.9% w/v) initial glucose, cellobiose substrate”, the “loss of activity towards cellobiose under glucose inhibition” value is recorded as “completely lost its activity”. Besides, under “cellobiose substrate, competitive inhibition, pH 4.8, 50° C.”, the Ki (usually the dissociation constant of the complex between target and ligand, obtained from inhibition or displacement) came out at 5.2 ± 0.63 mM. Moreover, the Km/Ki (inhibitor influence, Km for cellobiose / Ki for glucose, pH 4.8, 50° C.) is listed as 1.26.
